Each block holds one compound with its values, some of them ahead of it.
Key:
[1] = Octanol/water partition coefficient, logD of the compound at pH 7.4 by shake flask method; format: physicochemical
[2] = Metabolic stability in human hepatocytes assessed as intrinsic clearance measured per 10^6 viable cells/ml at 1 uM measured upto 120 mins by LC-MS/MS analysis; format: ADME, cell-based, Hepatocyte; conditions: read-out: CLH
[3] = Metabolic stability in human hepatocytes assessed as unbound intrinsic clearance measured per 10^6 viable cells/ml at 1 uM measured upto 120 mins by LC-MS/MS analysis; format: ADME, cell-based, Hepatocyte; conditions: 2 h
[4] = Metabolic stability in human liver microsomes assessed as intrinsic clearance at 1 uM measured upto 30 mins by LC-MS/MS analysis; format: ADME, Microsome; conditions: read-out: CLH
[5] = Metabolic stability in human liver microsomes assessed as unbound intrinsic clearance at 1 uM measured upto 30 mins by LC-MS/MS analysis; format: ADME, Microsome; conditions: 0.5 h
Relaxin receptor 1 = biological target: T1, Relaxin receptor 1 (Homo sapiens, UniProt Q9HBX9)
T1 sequence (Q9HBX9 whole entry): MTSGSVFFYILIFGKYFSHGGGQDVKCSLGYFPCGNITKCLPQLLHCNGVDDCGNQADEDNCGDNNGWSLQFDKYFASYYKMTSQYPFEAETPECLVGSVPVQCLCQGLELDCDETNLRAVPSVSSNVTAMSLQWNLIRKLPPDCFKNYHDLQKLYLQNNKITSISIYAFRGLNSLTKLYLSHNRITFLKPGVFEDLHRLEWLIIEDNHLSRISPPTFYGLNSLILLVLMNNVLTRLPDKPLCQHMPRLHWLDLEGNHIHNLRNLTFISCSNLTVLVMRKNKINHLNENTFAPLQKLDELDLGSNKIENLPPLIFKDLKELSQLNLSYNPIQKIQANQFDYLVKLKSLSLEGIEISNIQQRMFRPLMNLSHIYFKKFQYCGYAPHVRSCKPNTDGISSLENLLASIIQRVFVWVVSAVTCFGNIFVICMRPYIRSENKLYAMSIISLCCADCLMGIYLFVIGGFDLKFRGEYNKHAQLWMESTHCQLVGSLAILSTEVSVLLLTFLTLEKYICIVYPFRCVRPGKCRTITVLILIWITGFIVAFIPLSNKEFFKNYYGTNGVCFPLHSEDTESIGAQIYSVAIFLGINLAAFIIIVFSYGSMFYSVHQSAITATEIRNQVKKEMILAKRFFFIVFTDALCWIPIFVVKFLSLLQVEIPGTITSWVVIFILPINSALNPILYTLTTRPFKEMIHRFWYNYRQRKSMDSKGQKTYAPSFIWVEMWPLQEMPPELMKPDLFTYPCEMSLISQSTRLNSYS
Description: Agonist activity at human RXFP1 expressed in CHO cells assessed as increase in cAMP level measured after 2 hrs by HTRF cAMP assay

Structure (SMILES): CC1(CNC(=O)[C@H]2[C@@H]3CC[C@@H](C3)[C@H]2NC(=O)c2cc(O[C@H]3CC[C@@](C)(C(=O)O)CC3)c(F)cc2OC(F)F)CCC1
logD [1]: 3.3
hepatocyte CLint at 1 µM [2]: 26 µL/min/1e6 cells
CL free [3]: 52 µL/min
microsomal CLint at 1 µM [4]: 34 µL/min/mg
CL free [5]: 59 µL/min/mg

Structure (SMILES): CC1(CNC(=O)[C@H]2[C@@H]3CC[C@@H](C3)[C@H]2NC(=O)c2cc(O[C@H]3CC[C@@](C)(C(=O)O)CC3)cc3c2OCC3)CCC1
logD [1]: 2.9
hepatocyte CLint at 1 µM [2]: 3.3 µL/min/1e6 cells
CL free [3]: 5.1 µL/min
microsomal CLint at 1 µM [4]: 25 µL/min/mg
CL free [5]: 30 µL/min/mg

Structure (SMILES): COc1cc(F)c(O[C@H]2CC[C@@](CC#N)(C(=O)O)CC2)cc1C(=O)N[C@@H]1[C@H]2CC[C@H](C2)[C@@H]1C(=O)NCC1(C)CCC1
logD [1]: 1.4
hepatocyte CLint at 1 µM [2]: 10 µL/min/1e6 cells
CL free [3]: 15 µL/min
microsomal CLint at 1 µM [4]: 13 µL/min/mg
CL free [5]: 18 µL/min/mg
EC50 (Relaxin receptor 1): 0.0794 µM

Structure (SMILES): CC1(CNC(=O)[C@H]2C3CCC(C3)[C@H]2NC(=O)c2cc(O[C@H]3CC[C@@](C)(C(=O)O)CC3)c(C#N)cc2F)CCC1 (stereo not given in full)
logD [1]: 3.3
hepatocyte CLint at 1 µM [2]: 7.9 µL/min/1e6 cells
CL free [3]: 16 µL/min
microsomal CLint at 1 µM [4]: 14 µL/min/mg
CL free [5]: 27 µL/min/mg
EC50 (Relaxin receptor 1): 0.0158 µM

Structure (SMILES): COc1cc(F)c(O[C@H]2CC[C@@](C)(C(=O)O)CC2)cc1C(=O)N[C@@H]1[C@H]2CC[C@H](C2)[C@@H]1C(=O)NCC(C)C
logD [1]: 2.6
hepatocyte CLint at 1 µM [2]: < 1 µL/min/1e6 cells
CL free [3]: < 1.4 µL/min
microsomal CLint at 1 µM [4]: 5.7 µL/min/mg
CL free [5]: 7.6 µL/min/mg

Structure (SMILES): CC1(CNC(=O)[C@H]2[C@@H]3CC[C@@H](C3)[C@H]2N2CCc3cc(F)c(O[C@H]4CC[C@@](C)(C(=O)O)CC4)cc3C2=O)CCC1
hepatocyte CLint at 1 µM [2]: 2.1 µL/min/1e6 cells
CL free [3]: 3 µL/min
microsomal CLint at 1 µM [4]: 44 µL/min/mg
CL free [5]: 70 µL/min/mg
EC50 (Relaxin receptor 1): 1.58 µM

Structure (SMILES): COc1cc(F)c(O[C@H]2CC[C@@](C)(c3noc(=O)[nH]3)CC2)cc1C(=O)N[C@@H]1[C@H]2CC[C@H](C2)[C@@H]1C(=O)NCC1(C)CCC1
logD [1]: 3.8
hepatocyte CLint at 1 µM [2]: 12 µL/min/1e6 cells
microsomal CLint at 1 µM [4]: 87 µL/min/mg
CL free [5]: 212 µL/min/mg
EC50 (Relaxin receptor 1): 0.0794 µM

Now from value to compound, other results behind:

logD [1]: 3
microsomal CLint at 1 µM [4]: 11 µL/min/mg
CL free [5]: 15 µL/min/mg
EC50 (Relaxin receptor 1): 1 µM
Structure (SMILES): COCc1cc(OC)c(C(=O)N[C@@H]2[C@H]3CC[C@H](C3)[C@@H]2C(=O)NCC2(C)CCC2)cc1O[C@H]1CC[C@@](C)(C(=O)O)CC1
hepatocyte CLint at 1 µM [2]: 3.2 µL/min/1e6 cells
CL free [3]: 44 µL/min

logD [1]: 3.3
microsomal CLint at 1 µM [4]: 36 µL/min/mg
CL free [5]: 62 µL/min/mg
EC50 (Relaxin receptor 1): 0.00631 µM
Structure (SMILES): CC1(CNC(=O)[C@H]2[C@@H]3CC[C@@H](C3)[C@H]2NC(=O)c2cc(O[C@H]3CC[C@@](C)(C(=O)O)CC3)c(F)cc2OCF)CCC1
hepatocyte CLint at 1 µM [2]: 8.4 µL/min/1e6 cells
CL free [3]: 15 µL/min

logD [1]: 4.1
microsomal CLint at 1 µM [4]: 20 µL/min/mg
CL free [5]: 44 µL/min/mg
EC50 (Relaxin receptor 1): 0.0316 µM
Structure (SMILES): COc1cc(C(F)(F)F)c(O[C@H]2CC[C@@](C)(C(=O)O)CC2)cc1C(=O)N[C@@H]1[C@H]2CC[C@H](C2)[C@@H]1C(=O)NCC1(C)CCC1
hepatocyte CLint at 1 µM [2]: 3.9 µL/min/1e6 cells
CL free [3]: 93 µL/min

logD [1]: 3.3
microsomal CLint at 1 µM [4]: 44 µL/min/mg
CL free [5]: 73 µL/min/mg
Structure (SMILES): COc1c(F)cc(O[C@H]2CC[C@@](C)(C(=O)O)CC2)cc1C(=O)N[C@@H]1[C@H]2CC[C@H](C2)[C@@H]1C(=O)NCC1(C)CCC1
hepatocyte CLint at 1 µM [2]: 5.3 µL/min/1e6 cells
CL free [3]: 9.5 µL/min

logD [1]: 3.7
microsomal CLint at 1 µM [4]: 27 µL/min/mg
CL free [5]: 62 µL/min/mg
Structure (SMILES): COc1cc(C2CC2)c(O[C@H]2CC[C@@](C)(C(=O)O)CC2)cc1C(=O)N[C@@H]1[C@H]2CC[C@H](C2)[C@@H]1C(=O)NCC1(C)CCC1
hepatocyte CLint at 1 µM [2]: 5.3 µL/min/1e6 cells
CL free [3]: 13 µL/min

logD [1]: 3.3
microsomal CLint at 1 µM [4]: 12.6 µL/min/mg
CL free [5]: 17 µL/min/mg
Structure (SMILES): CC1(CNC(=O)[C@H]2[C@@H]3CC[C@@H](C3)[C@H]2NC(=O)c2cc(O[C@H]3CC[C@@](C)(C(=O)O)CC3)c(F)cc2O)CCC1
hepatocyte CLint at 1 µM [2]: 58 µL/min/1e6 cells
CL free [3]: 105 µL/min

— ChEMBL document CHEMBL5518236, “Discovery of Clinical Candidate AZD5462, a Selective Oral Allosteric RXFP1 Agonist for Treatment of Heart Failure” (J Med Chem, 2024)
